The subject of one experiment is H1299 and PC9 cells. Kind of experiment: Cell proliferation assay (WST-1). The note with it: 5 μM TST or siRNA knockdown; 24, 48, and 72 hours; both cell lines. It counts as cell-based, human. How it is done:
H1299 and PC9 cells were grown in 96-well plates, treated with 5 µM TST, or transfected with siFOXM1 at a density of 3,000 cells/well […]. Cell proliferation was recorded at the specified times by adding 4-[3-(4-iodophenyl)-2-(4-nitro-phenyl)-2H-5-tetrazolio]-1,3-benzene sulfonate) (WST-1, #MK400, TaKaRa Bio) at 37° C. for 2 hours, and absorbance was measured at 450 nm. All experiments were performed in quadruplicate.
A general note: Formazan colour is commonly taken as a measure of viable cells.

Experiment [1] relates to Lewis lung carcinoma LLC-1. Description: Syngeneic tumor model using murine lung cancer cells LLC-1.
Protocol: Lewis lung carcinoma LLC-1, murine lung cancer cells (5×10^5), were implanted subcutaneously in 5-week-old C57BL/6N mice (n=6 per group) (OrientBio, Seoul, Korea) and left for 10 days to form tumors with a volume of approximately 150 mm^3. […] Tumor volumes and body weights of the mice were measured every other day. On day 9, all the mice were sacrificed, and tumor tissues were collected, fixed in formalin, embedded in paraffin, and sectioned for IHC.
CD3^+ T-cells were detected (ab16669, Cambridge, UK) by anti-CD3 antibody Abcam, according to manufacturer's manuals. The positive signal intensity of CD3^+ T-cells was analyzed by using computer image analysis with ImageJ software (LOCI, University of Wisconsin), and the intensity of CD3^+ signals was calculated as a relative ratio of total positive area/total surface area. Pathological images were obtained from an Aperio VERSA slide scanning system (Leica Biosystems Imaging, Vista, CA, USA). At 100× magnification, three independent and intact computerized microscopic fields of each tissue sample were captured by Aperio Imagescope software (Leica Biosystems Imaging, Vista, CA, USA) and were used for analysis of signal intensity of CD3^+ cells in while microscopic fields.
The in vivo synergy between TST and anti-4-1BB antibody-treated groups was determined by calculating a coefficient of drug interaction (CDI), with CDI values<1, <0.7, =1, and >1 indicating synergy, significant synergy, additivity, and antagonism, respectively.
Lewis lung carcinoma (LLC-1) mouse lung cancer cells (5×10^5) were injected subcutaneously into C57BL/6N mice (n=6 per group) and allowed to form tumors with a volume of 150 mm^3 for 10 days.
In the next experiment the target is T1, FOXM1 (Homo sapiens, UniProt Q08050).
T1 construct: FLAG; expressed in transfected cells; host or cells: H1299 and PC9 cells
T1 sequence (Q08050 1-748 isoform Q08050-2): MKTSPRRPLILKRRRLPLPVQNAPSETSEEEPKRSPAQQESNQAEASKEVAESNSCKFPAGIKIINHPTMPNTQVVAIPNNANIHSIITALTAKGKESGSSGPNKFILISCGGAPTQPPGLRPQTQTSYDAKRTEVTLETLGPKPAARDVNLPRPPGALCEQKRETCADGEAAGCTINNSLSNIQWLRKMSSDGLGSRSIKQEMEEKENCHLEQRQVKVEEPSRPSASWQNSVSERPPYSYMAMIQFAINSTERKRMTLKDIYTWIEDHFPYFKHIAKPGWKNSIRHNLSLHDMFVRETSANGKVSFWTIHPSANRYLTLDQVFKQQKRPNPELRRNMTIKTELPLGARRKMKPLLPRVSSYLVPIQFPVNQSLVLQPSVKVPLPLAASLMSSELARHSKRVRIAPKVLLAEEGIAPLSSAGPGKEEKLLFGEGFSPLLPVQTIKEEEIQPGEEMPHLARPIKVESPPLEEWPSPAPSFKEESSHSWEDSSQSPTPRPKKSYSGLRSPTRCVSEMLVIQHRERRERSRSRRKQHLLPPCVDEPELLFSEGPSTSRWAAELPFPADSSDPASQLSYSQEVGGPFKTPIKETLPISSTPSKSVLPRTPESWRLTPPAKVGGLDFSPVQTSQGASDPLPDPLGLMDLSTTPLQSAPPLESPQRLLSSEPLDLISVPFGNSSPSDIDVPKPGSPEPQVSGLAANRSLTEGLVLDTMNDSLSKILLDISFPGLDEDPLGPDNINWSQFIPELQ
Kind of experiment: FOXM1 protein levels and nuclear translocation (nuclear cytoplasmic fractionation, Western blot, ICC). It is filed as cell-based. The note with it: for FOXM1 overexpression decreased by: TST-treated cells; for restoration of FOXM1 levels by overexpression of FOXM1 in treated cells: compared to mock transfection. As for the experimental part: To confirm protein subcellular localization, lysis of H1299 and PC9 cell pellets was performed in Buffer A (10 mM HEPES, 10 mM KCl, 1.5 mM MgCl2, 0.5 mM dithiothreitol (DTT), and 0.05% IGEPAL CA-630 (pH 7.9)) for 10 minutes. The Buffer A lysate was centrifuged at 1,000×g for 10 minutes at 4° C. to collect the nuclear fraction. After removal of the cytosolic fraction, buffer B containing 5 mM HEPES, 0.2 mM EDTA, 1.5 mM MgCl2, 0.5 mM DTT, and 26% glycerol (v/v) (pH 7.9) was added to the nuclear fraction and lysed on ice for 30 minutes.
Cells were lysed in RIPA buffer supplemented with complete mini protease inhibitor cocktail (#04693124001; Roche, Basel, Switzerland) and kept on ice for 30 minutes. Equal amounts of protein were evenly loaded and analyzed by sodium dodecyl sulfate-polyacrylamide gel electrophoresis (SDS-PAGE), and transferred to polyvinylidene difluoride (PVDF) membranes (#IPVH 00010; Millipore, Billerica, MA, USA) at 100 V for 1 hour. Primary antibodies (Santa Cruz Biotechnology, Texas, USA) specific for FOXM1 (#sc-271746), cyclin E1 (#sc-481), α-tubulin (#sc-8035), and β-actin (#sc-47778); PD-L1 (#13684S), cyclin D1 (#2978S), cyclin B1 (#4138S), c-MYC (#5605S), and poly(ADP-ribose) polymerase (PARP, #9542S; Cell Signaling Technology, Beverly, MA, USA) were used to probe proteins of interest. A horseradish-peroxidase-conjugated secondary antibodies specific to the primary antibody was used to detect proteins using pico-enhanced chemiluminescence substrate (#34577; Thermo Fisher Scientific).
Cells were fixed in 4% paraformaldehyde (#30525-89-4; FUJIFILM Wako Chemical, Wako, Japan) for 15 minutes and blocked with 1% bovine serum albumin (BSA) in phosphate-buffered saline-0.01% Tween-20 (PBS-T) to reduce nonspecific antibody binding. Cells were then incubated overnight with an anti-PD-L1 antibody (#14598382; eBioscience, San Diego, CA, USA) diluted 1:200 and an anti-FOXM1 antibody (#sc-271746; Santa Cruz Biotechnology) diluted 1:50, followed by incubation with an Alexa Fluor 488-labeled secondary antibody (#A11029; Thermo Fisher Scientific) for 1 hour. Nuclei were stained with Hoechst 33342. After incubation, cells were washed with PBS and mounted on glass slides using Prolong Glass Antifade mounting medium (#P36982; Thermo Fisher Scientific). Confocal microscopy was performed using a Zeiss 730 Meta microscope (Carl Zeiss, Oberkochen, Germany) and analyzed using Axiovision software (Carl Zeiss).

A further experiment deals with FOXM1 and PD-L1. Kind of experiment: Immunoblotting of FOXM1 and PD-L1 in human colorectal cancer cell lines. It counts as cell-based. Conditions: 5 μM TST; HCT8, HCT116, and SW480. As for the experimental part: Human colorectal cancer cell lines (HCT116, HCT8, and SW480) and human primary coronary artery smooth muscle cells (SMCs) were purchased from the American Type Culture Collection (Manassas, VA, USA), and a MC38 mouse colorectal adenocarcinoma cell line was provided by Dr. Beom-Kyu Choi (National Cancer Center, Goyang, Republic of Korea). MC38 cells were cultured in Dulbecco's modified Eagle's medium (DMEM) supplemented with 10% FBS and 1% penicillin/streptomycin. SW480 and HCT8 cells were cultured in Roswell Park Memorial Institute (RPMI) medium supplemented with 10% FBS and 1% penicillin/streptomycin. HCT116 cells were maintained in McCoy's 5A medium supplemented with 10% FBS and 1% penicillin/streptomycin. Cells were maintained at 37° C. in a humidified incubator with 5% CO2.
For immunoblotting analysis, protein concentrations were measured using a bicinchoninic acid kit (Cat. 23225; Thermo Fisher Scientific, Carlsbad, CA, USA). Proteins were separated by SDS-PAGE electrophoresis. […] The appropriate secondary antibodies conjugated to horseradish peroxidase were bound to the washed membrane, and protein bands were detected using a chemiluminescence kit (Thermo Fisher Scientific, Carlsbad, CA, USA).
In general terms: A western blot detects proteins with antibodies after separation by electrophoresis.

On to thiostrepton [TST], for which the cell proliferation entry in the experiment on H1299 and PC9 cells was “decreased in a time-dependent manner”. Also, in experiment [1] (day 9), the “number of apoptotic tumor cells (TUNEL), vs control group” value was determined as 2.46 fold. The “increase in CD3+ T cells in tumors, vs control group” value in experiment [1] (immunohistochemical staining) was 1.32 fold. In addition, the tumor growth inhibition in experiment [1] (treatment initiated at smaller tumor size (~80 mm^3), antibodies 0.2 mg/mouse) is 63.1%. The “inhibition of tumor growth” value in experiment [1] (tumors 150 mm^3 at start, TST 17 mg/kg, anti-4-1BB 0.2 mg/mouse, day 1, 3, 5, 7, vs control group) stood at 48%. Also, on FOXM1 (H1299), the “FOXM1 overexpression decreased by” value is on record as 63.7% and the “restoration of FOXM1 levels by overexpression of FOXM1 in treated cells” value turned out to be 84.33%. Besides, the “protein levels and nuclear translocation of FOXM1” value on FOXM1 (H1299 and PC9, TST 5 μM in the presence of IFN-γ 20 ng mL-1, or siFOXM1) was “decreased the protein levels and nuclear translocation of FOXM1”. For the same substance, at FOXM1 (PC9), the “FOXM1 overexpression decreased by” value came to 44% and the “restoration of FOXM1 levels by overexpression of FOXM1 in treated cells” value is on record as 57.56%. In addition, the “FOXM1 and PD-L1 levels” value with FOXM1 and PD-L1 is “significantly decreased both FOXM1 and PD-L1 levels”.

For the origin of these results see patent US20260248881A1, “PHARMACEUTICAL COMPOSITION COMPRISING FOXM1 INHIBITOR AND IMMUNE CHECKPOINT INHIBITOR FOR PREVENTING OR TREATING CANCER” (National Cancer Center, priority 2022, published 2026).
